Data published in PMC4522657, “Identification of a DYRK1A Inhibitor that Induces Degradation of the Target Kinase using Co-chaperone CDC37 fused with Luciferase nanoKAZ” (Scientific Reports, 2015).

What was measured:
[1] = target: T1, interaction of CDC37-nanoKAZ with 3xFLAG-DYRK1A (Y319F/Y321F) (Homo sapiens, UniProt Q13627, Y319F/Y321F); experiment: CDC37-nanoKAZ binding assay (ELISA of the CDC37-nanoKAZ interaction) in 293T cells; assay type: cell-based; conditions: for antagonism of the CDC37-nanoKAZ interaction: result in words, Fig. 6c; for EC50: 293T cells stably expressing CDC37-nanoKAZ, treated one hour, read-out: EC50, decrease of relative luminescence intensity
T1 construct: F2A peptide linking to EGFP (2A skipping releases EGFP; a 2A remnant may stay on DYRK1A) (C); expressed in transfected cells; host or cells: 293T cells stably expressing CDC37-nanoKAZ, transiently transfected with pcDNA5/FRT/TO 3xFLAG-DYRK1A (Y319F/Y321F)
Procedure: The cells were then treated with the indicated concentrations of small molecules for one hour. Cell lysates were added to FLAG antibody-coated 96-well plates and luminescence intensities were measured. The amount of bound 3xFLAG-DYRK1A was measured using a HRP-conjugated antibody against FLAG. The relative Imax for CDC37-nanoKAZ was normalized using the amount of bound protein.
Stable cell lines transfected with expression vectors for 3xFLAG-tagged DYRK family kinases and its mutants were lysed in ice-cold HENG buffer (50 mM HEPES-KOH, pH 7.9, 150 mM NaCl, 20 mM Na2MoO4, 2 mM EDTA, 5% Glycerol, 0.5% TritonX-100) containing protease inhibitor cocktail (Nacalai Tesque) on ice. […] The wells were wash three times with ice-cold HENG buffer and then a luminescence assay was performed.
(§1) The luminescence activity of the cell lysates was determined using a Centro LB 960 Microplate Luminometer (Berthold Technologies, Bad Wildbad, Germany). A reaction mixture containing bis-coelenterazine (final concentration of 0.1–1 μg/100 μL) in PBS containing 0.02% Tween20 and 20 mM EDTA was injected. The luminescence intensity was recorded at 0.1 s intervals for 10 s or 10 min. The maximum luminescence intensity (Imax), represented in relative luminescence units (rlu), was used in the study.
After measuring the luminescence intensities, the wells were washed three times with HENG buffer, and incubated with HRP-conjugated anti-FLAG antibody diluted with PBS containing […] and 2% fetal bovine serum at 37 °C for one hour. After extensive washing, […] Super Sensitive One Component HRP Microwell Substrate (SurModics, Eden Prairie, MN, USA) was added into the well and the reaction was stopped with sulfuric acid. Absorbance at 450 nm was measured with ARVO X5 (PerkinElmer). The relative amount of protein bound on the well was estimated from the absorbance.
In Supporting Figure S1a, the values of Imax are shown in kinetics plots. In Figs 2c,e, 3c, S1d, S3, and S4, the relative luminescence intensities are shown as the fold-change in the Imax values of the samples relative to Imax with EGFP. In Figs 4, 5a,c and 6c, the relative luminescence intensities were normalized to the amount of the bound 3xFLAG-DYRK1A mutant and calculated as the fold-change relative to the value at 0 μM of the compounds.
Small molecules in our original synthetic chemical library, including unpublished small molecule inhibitors of DYRK1A and its structural derivatives (data not shown), were added to the 96-well plates containing the transfected cells at a final concentration of 4 μM. The cells were then processed as described above.

DYRK1A = DYRK1A (Homo sapiens, UniProt Q13627); experiment: In vitro kinase assay, substrate DYRKtide-F; assay type: biochemical; design: full-length human recombinant kinases were expressed using a baculovirus expression system as amino-terminal GST-fusion proteins; GST (N); purchased Carna Biosciences; host or cells: baculovirus expression system; conditions: for inhibitory activity against recombinant DYRK1A: result in words, Fig. 6b
Source text: Detailed information on the assay conditions is available on the website of Carna Biosciences (http://www.carnabio.com/english/index.html; Kobe, Japan). In brief, full-length human recombinant kinases were expressed using a baculovirus expression system as amino-terminal GST-fusion proteins, and purified by glutathione-Sepharose chromatography. The GenBank accession numbers of DYRK1A, DYRK1B, DYRK2, and DYRK3 were NP_001387.2, NP_004705.1, NP_003574.1, and NP_003573.2. […] For each compound, a DMSO solution was diluted in assay buffer to yield a final concentration of 1% DMSO. After incubation for one hour at room temperature, substrate phosphorylation was analyzed by electrophoretic separation of the substrate and products using a Caliper LC3000 platform (Caliper Life Sciences, Mountain View, CA, USA). The phosphorylated product (P)/(P + substrate) ratio was calculated at each concentration of each small molecule and the percent inhibition was expressed relative to a control assay in the absence of the small molecule. […] The IC50 of each compound was calculated by interpolation on a log-concentration-response curve fitted with a four-parameter logistic equation.

CDC37-nanoKAZ = experiment: Luminescence activity of CDC37-nanoKAZ in total cell lysates; assay type: cell-based; conditions: counter-test, same concentrations as interaction assay
Procedure: as §1
Targeting the DYRK1A/CDC37 complex
(a-d) Luminescence intensities of total cell lysates of cells treated with the indicated […]
Figure 4. Luminescence intensities at each concentration are shown as fold-changes relative to that at 0 nM. Points are means ± SD (n = 3).
(1 picture or pasted object on this page, not shown here)
Luminescence intensities of total cell lysates of cells treated with the indicated concentrations of CaNDY, as also used in Figure 5c. Luminescence intensities at each concentration are shown as fold-changes to that at 0 nM. Points are means ± SD (n = 3).

3xFLAG-DYRK1A = target: T2, 3xFLAG-DYRK1A (Homo sapiens, UniProt Q13627); experiment: Western blot of 3xFLAG-DYRK1A level in transfected 293T cells; assay type: cell-based
T2 construct: F2A peptide linking to EGFP (2A skipping releases EGFP; a 2A remnant may stay on DYRK1A) (C); expressed in transfected cells; host or cells: 293T cells, transient
Procedure: To investigate whether DYRK1A is a client kinase of the CDC37/HSP90 system, we used a HSP90 inhibitor, ganetespib. 293T cells were transiently transfected with an expression vector of 3xFLAG-tagged DYRK1A (3xFLAG-DYRK1A). At 24 h after transfection, the cells were treated with ganetespib for the indicated time (0–8 h). Total cell lysates were collected and subjected to SDS-PAGE followed by Western blot analysis.
Figure 1 Ganetespib, a HSP90 inhibitor, decreases the DYRK1A protein level. 293T cells were transiently transfected with an expression vector for 3xFLAG-DYRK1A. At 24 h after transfection, the cells were treated with ganetespib (100 nM) and collected 0 and 8 h after treatment. Total cell lysates were subjected to SDS-PAGE followed by Western blot analysis using antibodies against FLAG and GAPDH. In the control group (DMSO), expression of 3xFLAG-DYRK1A increased at 8 h compared to 0 h, and ganetespib suppressed this increase of 3xFLAG-DYRK1A.
(§2) Western blot analysis was performed using the antibodies described above. In brief, total cell lysates were separated by SDS-PAGE (5–20% gels; ATTO, Tokyo, Japan) under reducing conditions and then transferred to a PVDF membrane (PALL, SP, Brazil). Antibody reactions were performed with Can Get Signal® Immunoreaction Enhancer Solution (Toyobo). Peroxidase activities on the membrane were visualized with ECL Western Blotting Detection Reagents (GE Healthcare) or ImmunoStar® LD (Wako Pure Chemical Industries, Osaka, Japan), and a ChemiDoc^TM MP Imaging System (Bio-Rad, Hercules, CA, USA).

endogenous DYRK1A = target: T3, endogenous DYRK1A (Homo sapiens, UniProt Q13627); experiment: Western blot of endogenous DYRK1A protein in HEK293 cells; assay type: cell-based; conditions: ganetespib 100 nM, 4 days
T3 construct: endogenous in cells; host or cells: HEK293
Procedure: We investigated whether CaNDY destabilizes DYRK1A as ganetespib does. […] Next we examined whether CaNDY decreased endogenous DYRK1A protein. HEK293 cells were cultured for 0–4 days with CaNDY (2 μM) and then subjected to SDS-PAGE followed by Western blot analysis using antibodies against DYRK1A and GAPDH. […] The treated cells were also subjected to reverse transcription followed by quantitative PCR analysis.
as §2

## O=C1NC(=S)S/C1=C\c1ccc2[nH]ccc2c1 [RD0440]
[1]
  antagonism of the CDC37-nanoKAZ interaction: did not antagonize the interaction
DYRK1A
  inhibitory activity against recombinant DYRK1A: weak inhibitory activity

## CCN1/C(=C/C(C)=O)Sc2ccc(O)cc21 [INDY]
CDC37-nanoKAZ
  inhibition of luminescence activity of CDC37-nanoKAZ: did not inhibit

## COc1ccc2c(c1)[nH]c1c(C)nccc12 [harmine]
CDC37-nanoKAZ
  inhibition of luminescence activity of CDC37-nanoKAZ: did not inhibit

## N=C1NC(=O)C(=Cc2ccc3c(c2)OCO3)S1 [PD0439]
[1]
  EC50: 573 nM
DYRK1A; 25 μM ATP, 1 μM DYRKtide-F, read-out: IC50, substrate phosphorylation
  IC50: 16.7 nM

## CC(C)c1cc(-c2n[nH]c(=O)n2-c2ccc3c(ccn3C)c2)c(O)cc1O [ganetespib, reference compound]
[1]
  EC50: 14 nM
3xFLAG-DYRK1A; ganetespib 100 nM, 8 h, compared with DMSO
  DYRK1A protein level: decreased the DYRK1A level
Endogenous DYRK1A
  accumulation of endogenous DYRK1A: prevented it
CDC37-nanoKAZ
  inhibition of luminescence activity of CDC37-nanoKAZ: did not inhibit

## [H]/N=C1/NC(=O)C(=Cc2ccc3[nH]ccc3c2)S1 [PD0442]
[1]
  antagonism of the CDC37-nanoKAZ interaction: did not antagonize the interaction
DYRK1A
  inhibitory activity against recombinant DYRK1A: weak inhibitory activity

## CC[C@H](C)[C@H](NC(=O)[C@H]([C@@H](C)CC)N(C)C(C)=O)C(=O)N[C@H](C(=O)N[C@@H](CC(C)C)C(=O)[C@@]1(C)CO1)[C@@H](C)O [epoxomicin]
3xFLAG-DYRK1A; 2 µM epoxomicin pre-treatment 1 h, then CaNDY 2 µM 8 h
  effect on CaNDY-mediated degradation of 3xFLAG-DYRK1A: partially prevented
